These results are taken from patent EP1981504B1, “THIADIAZOLE DERIVATIVES FOR THE TREATMENT OF NEURO DEGENERATIVE DISEASES” (NV reMYND, priority 2006, dated 2007).

In brackets after ≈: the same amount, converted by molar mass.

For the assay, the system named is M17-SYNwt cells. Description: α-synuclein cytotoxicity assay (LDH leakage from paraquat-treated α-synuclein over-expressing neuroblastoma cells). In kind it is cell-based, human. The following applies: for EC50 (µg/mL) / %I / EC50: paraquat 32 mM, 40 hours, LDH release; for EC50 (µg/mL) / EC50: 10 point curves in duplicate; for %I: percent inhibition of synuclein cytotoxicity at most effective concentration of test compound, relative to untreated paraquat cells; for LDH activity in the medium: Figure 2, dose response in paraquat-treated M17-SYNwt cells; for EC50: Homo sapiens, Neuroblastoma cell. How it is done: Subsequently, LDH activity was determined using Promega Cytotox 96 NonRadioactive cytotoxicity assay, (Cat. G1780) according the supplier's instructions.
This corresponds to the following equation: (LDHreleaseoftreatedparaquatcellsatnon-effectiveconcentrationoftestcmpd)−(LDHreleaseoftreatedparaquatcellsatmosteffectiveconcentrationoftestcmpd)/(LDHreleaseofuntreatedparaquatcells)−(LDHreleasecontrolcells)*100% [formula]
1,2,4-thiadazole compounds made according to the methods described herein were screened for activity using the α-synuclein cytotoxicity assay as described above. Dose responses were carried out on all compounds found to be active (10 point curves in duplicate).

Regarding “1-(3-methylbenzoyl)-4-[3-(4-methylbenzyl)-1,2,4-thiadiazol-5-yl]-2-methylpiperazine [Compound 144]”, the “EC50 (µg/mL)” value is recorded as 0,56 µg/mL and the “%I” value stood at 64%.

“1-(4-methoxybenzoyl)-4-[3-(4-methylbenzyl)-1,2,4-thiadiazol-5-yl]-2-methylpiperazine [Compound 130]”: the “EC50 (µg/mL)” value is given as 0,25 µg/mL and the “%I” value worked out at 118%.

Regarding “1-(phenylprop-2-ensulfonyl)-4-[3-(4-fluorobenzyl)-1,2,4-thiadiazol-5-yl]piperazine [Compound 78]”, the “EC50 (µg/mL)” value is 0,13 µg/mL and the “%I” value turned out to be 75%.

“1-(phenylprop-2-ensulfonyl)-4-[3-(4-methylbenzyl)-1,2,4-thiadiazol-5-yl]-2-methylpiperazine [Compound 79]”: the “EC50 (µg/mL)” value is on record as 0,17 µg/mL and the “%I” value was found to be 53%.

As to “1-(phenylprop-2-ensulfonyl)-4-[3-(4-methylbenzyl)-1,2,4-thiadiazol-5-yl]piperazine [Compound 80]”, the “EC50 (µg/mL)” value is 0,056880 µg/mL and the “%I” value is reported as 70%.

In the case of “1-[3-trifluorophenylsulfonyl]-4-[3-(4-fluorobenzyl)-1,2,4-thiadiazol-5-yl]-2-methylpiperazine [Compound 46]”, the “EC50 (µg/mL)” value was 1,34 µg/mL and the “%I” value came to 64%.

Take “1-[4-bromophenylsulfonyl]-4-[3-(4-methylbenzyl)-1,2,4-thiadiazol-5-yl]-3-methylpiperazine [Compound 40]”: the “EC50 (µg/mL)” value is listed as 0,099855 µg/mL and the “%I” value is given as 77%.

For “2-phenyl-N-{2-[4-[3-(4-fluorobenzyl)-1,2,4-thiadiazol-5-yl]piperazin-1-yl]ethyl}butanamide [Compound 111]”, the “LDH activity in the medium” value is on record as “able, in a dose-dependent manner, to reduce LDH activity in the medium”; the “EC50 (µg/mL)” value is listed as 1,79 µg/mL; the “%I” value was 79%.

Regarding “3-phenyl-N-{2-[4-[3-(4-fluorobenzyl)-1,2,4-thiadiazol-5-yl]piperazin-1-yl]ethyl}propanamide [Compound 112]”, the “EC50 (µg/mL)” value was 0,55 µg/mL and the “%I” value is 91%.

As for `O=C(Cc1ccccc1)N1CCN(c2nc(Cc3ccc(F)cc3)ns2)CC1` [Compound 1, 4-phenylacetyl-1-[3-(4-fluorobenzyl)-1,2,4-thiadiazol-5-yl]piperazine], the midpoint of the response, the EC50, lay at 0.15 µg/mL (≈ 0.378 µM) and the “%I” value is reported as 75%.

For the compound `O=C(Cc1ccc(F)cc1)N1CCN(c2nc(Cc3ccc(F)cc3)ns2)CC1` [Compound 2, 4-(4-fluorophenylacetyl),1-[3-(4-fluorobenzyl)-1,2,4-thiadiazol-5-yl]piperazine], the EC50 worked out at 0.25 µg/mL (≈ 0.603 µM) and the “%I” value amounted to 54%.

On to `Cc1ccc(Cc2nsc(N3CCN(C(=O)Cc4ccc(F)cc4)C(C)C3)n2)cc1` (centres unmarked) [Compound 3, 1-(4-fluorophenylacetyl)-4-[3-(4-methylbenzyl)-1,2,4-thiadiazol-5-yl]-2-methylpiperazine], for which the EC50 worked out at 2.2 µg/mL (≈ 5.18 µM) and the “%I” value is 76%.

With `COc1ccc(CC(=O)N2CCN(c3nc(Cc4ccc(F)cc4)ns3)CC2C)cc1` (centres unmarked) [Compound 4, 1-(4-methoxyphenylacetyl)-4-[3-(4-fluorobenzyl)-1,2,4-thiadiazol-5-yl]-2-methylpiperazine], the EC50 came out at 0.82 µg/mL (≈ 1.86 µM) and the “%I” value worked out at 56%.

`CC1CN(c2nc(Cc3ccc(F)cc3)ns2)CCN1C(=O)Cc1ccccc1` (centres unmarked) [Compound 5, 1-phenylacetyl-4-[3-(4-fluorobenzyl)-1,2,4-thiadiazol-5-yl]-2-methylpiperazine]: the “%I” value was found to be 83%.

`CC1CN(c2nc(Cc3ccc(F)cc3)ns2)CCN1C(=O)Cc1ccc(F)cc1` (centres unmarked) [Compound 6, 1-(4-fluorophenylacetyl)-4-[3-(4-fluorobenzyl)-1,2,4-thiadiazol-5-yl]-2-methylpiperazine]: the “%I” value amounted to 75%.

As for `CC1CN(c2nc(Cc3ccc(F)cc3)ns2)CCN1C(=O)C(Cl)c1ccccc1` (centres unmarked) [Compound 7, 1-[chloro(phenyl)acetyl]-4-[3-(4-fluorobenzyl)-1,2,4-thiadiazol-5-yl]-2-methylpiperazine], the “%I” value was 69%.

For the compound `CCC(C(=O)N1CCN(c2nc(Cc3ccc(F)cc3)ns2)CC1C)c1ccccc1` (centres unmarked) [Compound 8, 1-(2-phenylbutanoyl)-4-[3-(4-fluorobenzyl)-1,2,4-thiadiazol-5-yl]-2-methylpiperazine], the half-maximal effective concentration (EC50) came to 1.49 µg/mL (≈ 3.4 µM) and the “%I” value is 71%.

For the compound `O=C(Nc1cccc(F)c1)N1CCN(c2nc(Cc3ccc(F)cc3)ns2)CC1` [Compound 9, N-(3-fluorophenyl)-4-[3-(4-fluorobenzyl)-1,2,4-thiadiazol-5-yl]piperazine-1-carboxamide], the midpoint of the response, the EC50, lay at 0.52 µg/mL (≈ 1.25 µM) and the “%I” value is 53%.

With `Cc1ccccc1NC(=O)N1CCN(c2nc(Cc3ccc(F)cc3)ns2)CC1C` (centres unmarked) [Compound 10, N-(2-methylphenyl)-4-[3-(4-fluorobenzyl)-1,2,4-thiadiazol-5-yl]-2-methylpiperazine-1-carboxamide], the midpoint of the response, the EC50, lay at 0.6 µg/mL (≈ 1.41 µM) and the “%I” value was 72%.

In the case of `CCc1ccc(NC(=O)N2CCN(c3nc(Cc4ccc(F)cc4)ns3)CC2C)cc1` (centres unmarked) [Compound 11, N-(4-ethylphenyl)-4-[3-(4-fluorobenzyl)-1,2,4-thiadiazol-5-yl]-2-methylpiperazine-1-carboxamide], the half-maximal effective concentration (EC50) turned out to be 0.69 µg/mL (≈ 1.57 µM) and the “%I” value is 73%.

Regarding `CCc1ccccc1NC(=O)N1CCN(c2nc(Cc3ccc(F)cc3)ns2)CC1C` (centres unmarked) [Compound 12, N-(2-ethylphenyl)-4-[3-(4-fluorobenzyl)-1,2,4-thiadiazol-5-yl]-2-methylpiperazine-1-carboxamide], the concentration for a half-maximal effect (EC50) came to 0.89 µg/mL (≈ 2.02 µM) and the “%I” value was 92%.

As for `O=C(Nc1ccccc1)N1CCN(c2nc(Cc3ccc(F)cc3)ns2)CC1` [Compound 13, N-phenyl-4-[3-(4-fluorobenzyl)-1,2,4-thiadiazol-5-yl]piperazine-1-carboxamide], the EC50 amounted to 1.23 µg/mL (≈ 3.09 µM) and the “%I” value was 71%.

Take `CCOc1ccc(NC(=O)N2CCN(c3nc(Cc4ccc(F)cc4)ns3)CC2C)cc1` (centres unmarked) [Compound 14, N-(4-ethoxyphenyl)-4-[3-(4-fluorobenzyl)-1,2,4-thiadiazol-5-yl]-2-methylpiperazine-1-carboxamide]: the concentration giving a half-maximal response (EC50) is 1.73 µg/mL (≈ 3.8 µM) and the “%I” value was 70%.

As for `Cc1ccccc1NC(=O)N1CCN(c2nc(Cc3ccc(F)cc3)ns2)CC1` [Compound 15, N-(2-methylphenyl)-4-[3-(4-fluorobenzyl)-1,2,4-thiadiazol-5-yl]piperazine-1-carboxamide], the response was half-maximal at 5.01 µg/mL (≈ 12.2 µM) (EC50) and the “%I” value amounted to 65%.

As to `O=C(Nc1ccccc1F)N1CCN(c2nc(Cc3ccc(F)cc3)ns2)CC1` [Compound 16, N-(2-fluorophenyl)-4-[3-(4-fluorobenzyl)-1,2,4-thiadiazol-5-yl]piperazine-1-carboxamide], the half-maximal effective concentration (EC50) was determined as 5.68 µg/mL (≈ 13.7 µM) and the “%I” value was 72%.

`O=C(Nc1ccccc1C(F)(F)F)N1CCN(c2nc(Cc3ccc(F)cc3)ns2)CC1` [Compound 17, N-(2-trifluoromethylphenyl)-4-[3-(4-fluorobenzyl)-1,2,4-thiadiazol-5-yl]piperazine-1-carboxamide]: the “%I” value amounted to 46%.

Regarding `CC1CN(c2nc(Cc3ccc(F)cc3)ns2)CCN1C(=O)Nc1ccccc1C(F)(F)F` (centres unmarked) [Compound 18, N-(2-trifluoromethylphenyl)-4-[3-(4-fluorobenzyl)-1,2,4-thiadiazol-5-yl]-2-methylpiperazine-1-carboxamide], the “%I” value is 41%.

As to `Cc1cccc(C)c1NC(=O)N1CCN(c2nc(Cc3ccc(F)cc3)ns2)CC1C` (centres unmarked) [Compound 19, N-(2,6-dimethylphenyl)-4-[3-(4-fluorobenzyl)-1,2,4-thiadiazol-5-yl]-2-methylpiperazine-1-carboxamide], the “LDH activity in the medium” value is on record as “able, in a dose-dependent manner, to reduce LDH activity in the medium”; the half-maximal effective concentration (EC50) was found to be 0.2 µg/mL (≈ 0.455 µM); the “%I” value was determined as 95%.

For `Cc1ccc(NC(=O)N2CCN(c3nc(Cc4ccc(F)cc4)ns3)CC2C)c(C)c1` (centres unmarked) [Compound 20, N-(2,4-dimethylphenyl)-4-[3-(4-fluorobenzyl)-1,2,4-thiadiazol-5-yl]-2-methylpiperazine-1-carboxamide], it took 0.76 µg/mL (≈ 1.73 µM) to reach a half-maximal effect (EC50) and the “%I” value is listed as 106%.

In the case of `CC1CN(c2nc(Cc3ccc(F)cc3)ns2)CCN1C(=O)Nc1ccc(F)cc1F` (centres unmarked) [Compound 23, N-(2,4-difluorophenyl)-4-[3-(4-fluorobenzyl)-1,2,4-thiadiazol-5-yl]-2-methylpiperazine-1-carboxamide], the midpoint of the response, the EC50, lay at 0.94 µg/mL (≈ 2.1 µM) and the “%I” value is reported as 66%.

In the case of `Cc1cccc(C)c1NC(=O)N1CCN(c2nc(Cc3ccc(F)cc3)ns2)CC1` [Compound 24, N-(2,6-dimethylphenyl)-4-[3-(4-fluorobenzyl)-1,2,4-thiadiazol-5-yl]piperazine-1-carboxamide], the EC50 amounted to 1.2 µg/mL (≈ 2.82 µM) and the “%I” value came to 124%.

For orientation: EC50 means the midpoint of the concentration-response curve. High values mean lower potency in that assay, low ones higher potency in that assay.
